The values below are quoted from earlier work in PMC8198792, “Prediction of Anticancer Peptides with High Efficacy and Low Toxicity by Hybrid Model Based on 3D Structure of Peptides” (International Journal of Molecular Sciences, 2021).

This data set concerns cancer cell lines. Further details: method as in 6 sources, ref CancerPPD [45] and SATPdb ||| ref CancerPPD/SATPdb ||| ref CancerPPD, SATPdb, Swissprot (PDB) ||| ref CancerPPD/SATPdb/Swissprot(PDB) ||| ref CancerPPD / SATPdb ||| ... The settings on record: cited from earlier work. The text has this:
Supplement ijms-22-05630-s001.zip/ACPs(seguence).xlsx, sheet "D1" | column: Activity || Supplement ijms-22-05630-s001.zip/ACPs(seguence).xlsx, sheet "D2" | column: Activity || Supplement ijms-22-05630-s001.zip/ACPs(seguence).xlsx, sheet "D3" | column: Activity || (+ 2 further places)

Setting [1] is: ACPs dataset D1, 1 = ACP (positive), 0 = non-ACP (negative), label taken from databases, ref CancerPPD [45] and SATPdb.
[2] abbreviates: ACPs dataset D4 (sheet "D4"), label 1 = ACP, experimentally validated ACPs, ref CancerPPD [45] and SATPdb.
Where [3] appears, read: ACPs dataset D5 (sheet "D5"), label 1 = ACP (positive set), sequences with CancerPPD/SATPdb ID, ref CancerPPD, SATPdb.
Setting [4] is: ACPs dataset sheet D2, 1 = ACP (CancerPPD/SATPdb ID), 0 = non-ACP (Swissprot/PDB ID), ref CancerPPD, SATPdb, Swissprot (PDB).
Setting [5] is: ACPs dataset D1, label 1 = ACP, 0 = non-ACP (non-anticancer AMPs from SATPdb), ref CancerPPD/SATPdb.
Setting [6] is: ACPs dataset D4 (sheet "D4"), label 1 = ACP, 0 = non-ACP, ref CancerPPD / SATPdb.
[7] abbreviates: ACPs dataset D3 (supplement sheet "D3"), 1 = ACP, 0 = non-ACP, ref CancerPPD [45] and SATPdb.
The mark [8] stands for this setting: ACPs dataset D4 (sheet "D4"), label 1 = ACP (CancerPPD ID), 0 = non-ACP (non-anticancer AMP, SATPdb ID), ref CancerPPD [45] and SATPdb.
The mark [9] stands for this setting: ACPs dataset D5 (sheet "D5"), label 1 = ACP (positive set), 0 = non-ACP (negative set), ref CancerPPD [45] and SATPdb.
[10] abbreviates: ACPs dataset D5, sheet "D5", label 1 = ACP, 0 = non-ACP, ref CancerPPD [45] and SATPdb.
[11] abbreviates: ACPs dataset D3 (sheet "D3"), label 1 = ACP, 0 = non-ACP, ref CancerPPD/SATPdb.
[12] abbreviates: ACPs dataset D2 (supplement ACPs(seguence).xlsx, sheet D2), dataset label 1/0 (ACP / non-ACP), entries identified by Swissprot(PDB ID), ref CancerPPD/SATPdb/Swissprot(PDB).

Where two headings read alike, the source gives them in different places.

On to “LRVRLASHLRKLRKRLLRDADDLQKRLAVY [compound 1665]”, for which the Activity runs as follows: under setting [1], 1; under setting [2], 1; under setting [3], 1; under setting [4], 1.

Consider GFSPNLPGKGLRIS [satpdb13263], for which the Activity was 0 under setting [5] and 0 under setting [6].

On to KWKLFKKIPHLAKKF [compound 1140], for which the Activity runs as follows: under setting [7], 1; under setting [8], 1; under setting [9], 1.

With “YRGGYTGPIPRPPPIGRPPLRLVVCACYRLS [satpdb12661]”, the Activity is 0 under setting [5] and 0 under setting [8].

With “GLMDTIKGVAKTVAASWLDKLKCKITGC [compound 4362]”, the Activity is recorded as 1 under setting [1], 1 under setting [2], 1 under setting [3] and 1 under setting [4].

On to “GTPCGESCVYIPCFTAVVGCTCKDKVCYLN [satpdb10441]”, for which the Activity runs as follows: under setting [5], 0; under setting [8], 0.

As to GLKEIFKAGLGSLVKGIAAHVAS [satpdb14561], the Activity under setting [6] is reported as 0 and the Activity under setting [10] is recorded as 0.

ASSGWVCTLTIECGTVICACR [satpdb11450]: the Activity was 0 under setting [5] and 0 under setting [8].

For KWKSFIKKLTDKFLHSAKKF [satpdb12512], the Activity reads like this: under setting [11], 0; under setting [6], 0; under setting [10], 0.

For the substance FLGALLGPLMNLLQ [satpdb14038], the Activity under setting [11] is on record as 0, the Activity under setting [6] was 0 and the Activity under setting [10] was 0.

On to “DKLIGSCVWGAVNYTSDCNGECKRRGYKGGHCGSFANVNCWCET [1I2U NMR - A 1-44]”, for which the Activity is, setting by setting: under setting [12], 0; under setting [9], 0.

As to “ESVFSKIGNAVGPAAYWILKGLGNMSDVNQADRINRKKH [satpdb11882]”, the Activity under setting [5] is given as 0 and the Activity under setting [8] is listed as 0.

For “MVQNDFVDSYDVTMLLQDDDGKQYYEYHKGLSLSDFEVLYGNTADEIIKLRLDKVL [2LE2 NMR - A/B 1-56]”, the Activity was 0 under setting [12] and 0 under setting [10].

Take RGDLLRHVVKILEKYL [compound 1672]: the Activity under setting [1] is listed as 1, the Activity under setting [2] was 1, the Activity under setting [3] was 1 and the Activity under setting [4] was 1.

Consider “ALWKTMLKKLGTMALHAGKAALGAAADTISQGTQ [compound 1708]”, for which the Activity under setting [1] is recorded as 1, the Activity under setting [2] is 1, the Activity under setting [3] is recorded as 1 and the Activity under setting [4] is 1.

As to FKRiVQRiKDFlRNLV [compound 1530], the Activity is on record as 1 under setting [7], 1 under setting [2] and 1 under setting [3].

Turning to “TSPQREATCTSEVSGCPKIYNPVCGTDGITYSNECVLCSENKKRQTPVLIQKSGPC [1TGS X-ray 1.80,I,1-56]”, the Activity under setting [12] was 0 and the Activity under setting [10] is listed as 0.

Regarding GVVDILKGAAKDLAGHLATKVMNKL [satpdb14637], the Activity is, setting by setting: under setting [11], 0; under setting [6], 0; under setting [10], 0.

With WKSYVRRWRSR [satpdb10329], the Activity under setting [1] is on record as 0 and the Activity under setting [8] was 0.

As to GKWMKLLKHILK [compound 3652], the Activity is 1 under setting [7], 1 under setting [8] and 1 under setting [9].

FLPVVAGLAAKVLPSIICAVTKKC [satpdb12902]: the Activity reads like this: under setting [5], 0; under setting [6], 0.

GCSRWIIGIHGQICRD [satpdb12437]: the Activity reads like this: under setting [5], 0; under setting [8], 0.

Turning to “YGRKKRRQRRRREADFFWSLCTADMS [compound 3718]”, the Activity is on record as 1 under setting [1], 1 under setting [2], 1 under setting [3] and 1 under setting [4].

Take FKIPPIVKDTLKKFFKGGIAGVMGQ [satpdb10550]: the Activity reads like this: under setting [1], 0; under setting [8], 0.

Consider “GILDSFKQFAKGVGKDLIKGAAQGVLSTMSCKLAKTC [satpdb11305]”, for which the Activity is, setting by setting: under setting [1], 0; under setting [8], 0.

Take “LVPRGSRAGSPSGGPFCALARQPLTGARLMSGLFFALHET [satpdb15805]”: the Activity is, setting by setting: under setting [1], 1; under setting [2], 1; under setting [3], 1; under setting [4], 1.

As for “IPCGESCVWIPCISGMFGCSCKDKVCYS [compound 4368]”, the Activity reads like this: under setting [1], 1; under setting [2], 1; under setting [3], 1; under setting [4], 1.

Consider “DKLIGSCVWGAVNYTSNCNAECKRRGYKGGHCGSFANVNCWCET [1OZZ NMR - A 1-44]”, for which the Activity runs as follows: under setting [12], 0; under setting [9], 0.

Consider “GSIPCGESCVFIPCISSVIGCACKSKVCYKN [compound 4374]”, for which the Activity is, setting by setting: under setting [1], 1; under setting [2], 1; under setting [3], 1; under setting [4], 1.

KWKLFKKIGPGKFLHSAKKF [compound 1186]: the Activity is reported as 1 under setting [7], 1 under setting [8] and 1 under setting [9].

For DFKLFAVTIKYR [satpdb15826], the Activity is reported as 1 under setting [1], 1 under setting [2], 1 under setting [3] and 1 under setting [4].

As for “RDCTSQSHKFVGLCLSDRNCASVCLTEYFTGGKCDHRRCVCTKGC [satpdb13162]”, the Activity is, setting by setting: under setting [5], 0; under setting [6], 0.

With “GLLSVLGSVAKHVLPHVVPVIAEHL [compound 4424]”, the Activity is, setting by setting: under setting [1], 1; under setting [2], 1; under setting [3], 1; under setting [4], 1.

For GKWMSLLKKILK [compound 3651], the Activity is, setting by setting: under setting [7], 1; under setting [8], 1; under setting [9], 1.

In the case of “GLPTCGETCTLGTCYVPDCSCSWPICMKN [compound 4381]”, the Activity is given as 1 under setting [1], 1 under setting [2], 1 under setting [3] and 1 under setting [4].

For the substance GVDITVIRPNH [satpdb22601], the Activity is, setting by setting: under setting [1], 1; under setting [2], 1; under setting [3], 1; under setting [4], 1.

In the case of “CENTISGCSR ADCLLTHRKQ GCQKTCGLC [5WCV NMR - A 1-29]”, the Activity is given as 0 under setting [9] and 0 under setting [4].

Regarding GFGMALRLLRRVL [compound 3598], the Activity runs as follows: under setting [7], 1; under setting [8], 1; under setting [9], 1.

Take TKPRKTKPRKTKPRKTKPR [compound 5055]: the Activity is, setting by setting: under setting [1], 1; under setting [2], 1; under setting [3], 1; under setting [4], 1.

Take “MISDEQLNSLAITFGIVMMTLIVIYHAVDSTMSPKN [1RKL NMR - A 1-36]”: the Activity is 0 under setting [12] and 0 under setting [9].

As to GRLKRLRKKLKKLLKKLS [satpdb12346], the Activity under setting [11] is reported as 0, the Activity under setting [6] is given as 0 and the Activity under setting [10] is 0.

“ERRCPRILKQ CKRDSDCPGE CICMAHGFCG [1EWU model - I 1-30]”: the Activity reads like this: under setting [9], 0; under setting [4], 0.

Take GFGMALOLLOOVL [compound 3597]: the Activity was 1 under setting [7], 1 under setting [8] and 1 under setting [9].

As to “MSAGVITGVL LVFLLLGYLV YALINAEAF [6HRA electron microscopy 3.70, D ,1-29]”, the Activity reads like this: under setting [9], 0; under setting [4], 0.

TSWSPCSASCGGGHYQRTR [satpdb16504]: the Activity under setting [1] was 1, the Activity under setting [2] is 1, the Activity under setting [3] is given as 1 and the Activity under setting [4] is on record as 1.

Regarding KIKLFKKWPKFLHLAKKF [satpdb14419], the Activity under setting [11] is 0, the Activity under setting [6] is on record as 0 and the Activity under setting [10] is 0.

As for “THRPPMWSPVWPGGGKLlLKlLkkLLKlLKKK [compound 4603]”, the Activity is, setting by setting: under setting [7], 1; under setting [8], 1; under setting [9], 1.
